Measurements as given in patent US20180371046A1, “Therapy for Lower Urinary Tract Dysfunctions” (University of Pittsburgh - Of the Commonwealth System of …, priority 2017, published 2018).
Entries after “also recorded” stand apart in the source; their conditions may differ.

How the values were obtained:
RXFP1 and RXFP2 receptor = settings: Bathgate et al. 2013; cited from earlier work
[1] = tested on: C57Bl/6 mice with chronic radiation cystitis; test: Urine spot analysis of irradiated mice; type: in vivo, mouse
Procedure: FIG. 16. Urine spot analysis from irradiated mice with and without hRLX2 therapy. Mice were placed in metabolic cages with Whatman paper on the floor for 2 hours between 11 AM and 2 PM without access to food and water. Upon completion, filter papers were collected and photographed under UV light.
Thus, our assessment is that the therapeutic dose of hRLX2 is likely between 80 and 400 μg/kg/day.

Cav1.2 [2] = test: Immunohistochemistry of Cav1.2 in aged rat bladders; type: in vivo; settings: aged (24 month) rat bladders, 400 μg/kg/day for 14 days
Source text: FIG. 7. Expression of L-type Ca^2+ channels is increased in aged rat bladders following relaxin treatment. Immunohistological staining of aged (>24 month old) rat bladder sections for the L-type Ca^2+ channel al C subunit, Cav1.2α. Expression of Cav1.2α was increased in relaxin-treated rat bladders compared to sham controls, similar to that observed in irradiated mouse bladders (FIG. 5C). […] This emphasizes the heterogeneity of aging related bladder changes.
(§1) Aged (24 month) and adult (9 month) male and female F344 rats (obtained through the aged rodent colony of the National Institute on Aging) were administered recombinant hRLX2 (400 μg/kg/day) or saline for 14-days via subcutaneous osmotic pumps. At the end of the treatment period, bladders were isolated and contractile function assessed in organ bath experiments using muscle strips to measure length-tension relationships and responses to agonists and electrical field stimulation. Bladder wall morphology was examined in 3 μm-thick histological sections stained for collagen and elastin. The expression of the L-type Ca^2+ channel α-subunit, Cav1.2, and relaxin receptor subtypes, RXFP1 and RXFP2, were determined by immunohistochemistry.

[3] = Plasma hRLX2 level in rats; type: in vivo; settings: rat, male; SC pump 77 μg/kg/d/14 days
irradiated mouse bladder = test: Histology and collagen quantification of irradiated mouse bladders; type: in vivo
Source text: (§2) FIG. 5A-5D. Relaxin treatment improves detrusor contractility and reduces bladder fibrosis in mouse bladders with chronic stage radiation cystitis. FIG. 5A. Length-tension profiles from irradiated (9-weeks post exposure) mouse bladders with and without relaxin treatment. […] FIG. 5B. […] FIG. 5C. […] Expression of the L-type Ca^2+ channel subunit, CaV1.2, was examined by immunohistochemistry. […] FIG. 5D.
(§3) A mouse model was developed to mimic chronic radiation cystitis. As a surrogate to chronic radiation cystitis in the mouse, a laparotomy was performed where the bladder was briefly withdrawn for selective high dose (10 Gy) irradiation (FIG. 4(A)). Delivered to the pelvic region such a dose could be lethal (LD50≅8 Gy). […] Moreover, following spinal cord injury, rodents can develop detrusor-sphincter-dyssynergia (DSD) which also occurs in humans. […] This is the first application of relaxin to treat bladder dysfunction due to irradiation damage or any urinary tract disease. The data also are by far the most impressive reversal/treatment for radiation cystitis.

aged rat bladder [4] = test: Length-tension studies and agonist/EFS responses of bladder strips from aged and adult rats; type: in vivo
Procedure: Adult (9 months old) and aged (24 months old) Fisher 344/Brown Norway F1 (F-344) male rats were used in this study. Six out of twelve rats in each age group were treated with relaxin (400 μg/kg/day) or vehicle which were infused by osmotic mini-pumps (ALZET) for 14 days, after which bladders were excised and cut from outlet to dome along the midline ventral and dorsal aspects to form two strips.
One strip was placed in a recording chamber with oxygenated Krebs solution. The base was pinned to a fixed platform and the dome connected to a tension transducer mounted on a programmable stepper motor. Bladder strips were stretched longitudinally in 500 μm increments and baseline tension allowed to stabilize (passive tension). Three field stimulation (20 Hz, 3 sec train, 0.5 ms pulse width, 15V output) contractions were performed at each stretch to determine active force generation.
(§4) Aged (24 month) and adult (9 month) male and female F344 rats were administered recombinant human relaxin-2 (400 μg/kg/day) or saline for 14-days via subcutaneous osmotic pumps. At the end of the treatment period, bladders were isolated. Contractile function was assessed in bladder muscle strips using length-tension relationship and responses to agonists and electrical field stimulation. Bladder wall morphology was examined in histological sections stained for collagen and elastin.
as §1

[5] = tested on: irradiated mouse bladder (chronic radiation cystitis); test: Decerebrated cystometry with simultaneous EUS electromyography in the selective bladder irradiation (chronic radiation cystitis) mouse model; type: in vivo; settings: mice 9 weeks after 10 Gy selective bladder irradiation
Procedure: FIG. 4. Cystometric and EUS electromyographic assessment of irradiated mice with and without relaxin treatment. A. Selective bladder irradiation model. B-D. Bladder and sphincter functions were assessed using decerebrated cystometry with simultaneous electromyography (EMG; green traces) at 9 weeks following bladder irradiation.
as §3

[6] = tested on: irradiated mouse bladder detrusor; test: Length-tension profiles and contractile responses of irradiated mouse bladders after relaxin treatment; type: in vivo; settings: relaxin treated
Source text: as §2, §3

[7] = clinical trials in acute heart failure and scleroderma; as high as 250 μg/kg/day; cited from earlier work
aged rat bladder [8] = test: Collagen staining and collagen:tissue ratio in aged and adult rat bladder sections; type: in vivo; settings: for collagen:tissue ratio / bladder collagen content / deposition: 400 μg/kg/day for 14 days; for bladder collagen content / deposition: aged rats (male where stated)
Procedure: The other bladder strip was fixed in 10% PFA, embedded in paraffin, cut 5 μm thick, stained for collagen (Sigma HT251) and examined using bright field microscopy (total mag., 400×). The images were obtained at identical conditions and color analysis was performed using the ImageJ software threshold function to discriminate collagen and smooth muscle content.
as §4, §1

CaV1.2 [9] = test: Immunohistochemistry of L-type Ca2+ channel subunit in irradiated mouse bladders; type: in vivo; settings: relaxin treated, listed as relaxin
Source text: as §2, §3

[10] = tested on: aged rat prostate / urethra; test: Histological sections of male rat urethras at the level of the prostate (aged rats, BPH); type: in vivo; settings: hRLX2 treated vs control, preliminary studies
Source text: FIG. 21. Histological sections of male rat urethras—at the level of the prostate—from control and hRLX2 treated aged rats.
Benign Prostatic Hyperplasia is a non-malignant enlargement of the prostate and is a condition that frequently affects the elderly male population. BPH in humans can cause constriction of the urethra, outlet obstruction, inflammation, fibrosis and the development of LUTD (Bushman, W. A., et al.: The role of prostate inflammation and fibrosis in lower urinary tract symptoms. Am J Physiol Renal Physiol, 311: F817, 2016). […] However, the therapeutic effects of hRLX2 on BPH itself can still be evaluated in aged animal models. We propose that selective injection of hRLX2 (FIG. 20) to the lateral and ventral lobes (corresponding to the transitional zone of the human prostate) or systemic administration could be performed in aged rats or mice. Following treatment, the prostates could be evaluated histologically for morphological changes such as smooth muscle or extracellular matrix content, signs of inflammation (e.g., mast cell infiltration, edema) or epithelial damage, as that observed in preliminary studies (FIG. 21).

RXFP2 = RXFP2 (Homo sapiens, UniProt Q8WXD0); settings: cited from earlier work
Chain of RXFP2 (Q8WXD0 whole entry, species assumed): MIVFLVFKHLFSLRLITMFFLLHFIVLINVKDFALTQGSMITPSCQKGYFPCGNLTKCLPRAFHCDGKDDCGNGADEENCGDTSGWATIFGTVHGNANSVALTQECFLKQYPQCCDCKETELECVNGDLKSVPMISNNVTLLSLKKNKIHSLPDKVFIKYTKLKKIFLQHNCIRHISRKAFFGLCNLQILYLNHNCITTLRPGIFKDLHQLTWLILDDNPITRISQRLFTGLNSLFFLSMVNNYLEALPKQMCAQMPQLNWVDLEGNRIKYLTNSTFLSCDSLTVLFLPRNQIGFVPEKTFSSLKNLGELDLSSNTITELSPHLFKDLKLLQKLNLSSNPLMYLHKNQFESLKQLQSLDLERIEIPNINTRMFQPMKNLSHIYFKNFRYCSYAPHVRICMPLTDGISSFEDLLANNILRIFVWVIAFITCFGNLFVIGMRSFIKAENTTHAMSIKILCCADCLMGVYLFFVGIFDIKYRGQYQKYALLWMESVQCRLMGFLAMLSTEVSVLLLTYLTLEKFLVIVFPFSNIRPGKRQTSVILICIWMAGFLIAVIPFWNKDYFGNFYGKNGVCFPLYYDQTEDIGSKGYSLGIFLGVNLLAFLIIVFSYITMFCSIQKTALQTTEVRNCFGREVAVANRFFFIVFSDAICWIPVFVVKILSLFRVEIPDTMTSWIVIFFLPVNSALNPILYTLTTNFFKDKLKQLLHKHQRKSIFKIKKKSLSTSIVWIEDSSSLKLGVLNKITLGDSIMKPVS

[11] = adult (9 month) male rats, relaxin vs vehicle, 400 μg/kg/day for 14 days

human relaxin-2 [hRLX2]
affinity, RXFP1 versus RXFP2 (RXFP1 and RXFP2 receptor): greater for the RXFP1 than the RXFP2 receptor | urine spot analysis: number of spots and voided volumes ([1]; irradiated mice (10 Gy), 50 μg/kg/day sc osmotic pump, two weeks): small decrease in the number of spots and increase of voided volumes | urine spot analysis: voiding pattern ([1]; irradiated mice (10 Gy), 400 μg/kg/day): voiding pattern identical to those of non-irradiated controls | urine spot analysis: voided volumes and number of spots ([1]; irradiated mice, dose not given): increased voided volumes and decreased the number of spots, restoring normal bladder function | Cav1.2 expression in the detrusor layer (Cav1.2 [2]): increased in aged rat bladders following hRLX2 treatment | Cav1.2 expression in the detrusor layer (Cav1.2 [2]; listed as Relaxin): increased expression of L-type Ca^2+ channels | Cav1.2 expression in the detrusor layer (Cav1.2 [2]; listed as relaxin): increased; also recorded: increases in smooth muscle expression of Cav1.2α | Plasma level, exogenous [3]: 5,042 ♂ pg/ml | bladder wall histology (urothelium, lamina propria, detrusor layer) (irradiated mouse bladder; relaxin treated): intact urothelium, normal lamina propria and increased thickness of the detrusor layer | collagen content (irradiated mouse bladder; relaxin vs sham treated): significant decrease in collagen content; also recorded: decreased collagen content | compliance and force generation (aged rat bladder [4]; 24 month-old Fischer F-344 rats, 400 μg/kg/day sc ALZET pumps, 2 weeks (Example 2)): substantial increases in both compliance and force generation | active tension generation (aged rat bladder [4]; [11]): increased active tension generation compared to controls | passive tension profile (aged rat bladder [4]; [11]): no significant difference | passive tension profile (aged rat bladder [4]; aged (24 month) rats, male where stated, 400 μg/kg/day sc for 14 days): return of passive tension profiles comparable to adults | passive tension profile (aged rat bladder [4]; aged (24 month) rats, male where stated, 400 μg/kg/day sc for 14 days, listed as Relaxin): return of passive tension profiles comparable to adults | passive tension profile (aged rat bladder [4]; aged (24 month) rats, male where stated, 400 μg/kg/day sc for 14 days, listed as relaxin): passive tension began increasing at a smaller degree of stretch compared to relaxin treated animals; also recorded: decreased the passive tension profile to that of adult animals | responses to contractile agonists (ABMA and oxotremorine-M) or depolarization (KCl and EFS) (aged rat bladder [4]; aged and adult rat bladders, relaxin vs sham): no significant change | tissue compliance (aged rat bladder [4]; aged female rats, 400 μg/kg/day for 14 days): nor was it significantly altered | active tension generation (aged rat bladder [4]; aged rats, relaxin vs vehicle/sham, 400 μg/kg/day for 14 days): equivocal; also recorded: no significant changes | EUS electromyogram: guarding reflex and bursting ([5]; relaxin 400 μg/kg/day sc for 2 weeks from week 7): recovered with relaxin treatment; also recorded: return of a normal guarding reflex and bursting | cystometry: voiding function and bladder compliance ([5]; relaxin 400 μg/kg/day sc mini-pump for 2 weeks from week 7): abolished overflow incontinence with a return of voiding function and improved bladder compliance | active tension / active force generation (length-tension profile) ([6]; 9 weeks post exposure): reversed by relaxin treatment to a profile similar to non-irradiated control mouse bladders; also recorded: increased active force generation | passive tension (length-tension profile) ([6]; 9 weeks post exposure): reversed by relaxin treatment to a profile similar to non-irradiated control mouse bladders; also recorded: reversed by relaxin | responses to purinergic agonist (ABMA), depolarization (KCl) or electrical field stimulation (EFS) [6]: no significant change | contractile response of the detrusor to oxotremorine-M (cholinergic response) ([6]; listed as Relaxin): increased the contractile response of the detrusor to muscarinic receptor agonist, oxotremorine-M | contractile response of the detrusor to oxotremorine-M (cholinergic response) ([6]; listed as relaxin): an increase in the cholinergic response | safety for use in humans [7]: validated its safety for use in humans | collagen:tissue ratio (aged rat bladder [8]; 9 month adult male rats, no significant difference to vehicle): 0.33±0.09 | size of each bladder layer and collagen distribution (aged rat bladder [8]; 9 month old rats, sham vs relaxin treated): not significantly different | collagen:tissue ratio (aged rat bladder [8]; 24 month aged male rats, p<0.05): 0.36±0.08 | bladder collagen content / deposition (aged rat bladder [8]): decreased by hRLX2 treatment | bladder collagen content / deposition (aged rat bladder [8]; listed as relaxin): decreased following relaxin treatment; also recorded: significant decrease in collagen content; also recorded: decreases in collagen content | detrusor layer thickness and collagen infiltration (aged rat bladder [8]; aged rats, relaxin treated vs shams): increased detrusor layer thickness and less collagen infiltration compared to shams | CaV1.2 expression in the detrusor (CaV1.2 [9]): returned by relaxin treatment; also recorded: an increase in the expression of Cav1.2α | prostatic urethra histology (inflammation, columnar epithelium disruption, collagen infiltration, internal urethral sphincter damage) [10]: prevented these adverse changes

B1: insulin-like peptide-3 (protein, listed as Homo sapiens)
chain: MDPRLPAWALVLLGPALVFALGPAPTPEMREKLCGHHFVRALVRVCGGPRWSTEARRPATGGDQRESHSVSQAGLKLLSSSNPPTLTFQSVGISDVSCYSGWRDDICSMGWWPTVISRWDLACSPCPRPLTITATTVQLPPTLHATAASVAVPNKTC
affinity for RXFP2 (RXFP2): highest affinity for RXFP2
